Assay results reported in patent US9663473B2 (Actelion Pharmaceuticals Ltd, priority 2013, dated 2017).
Structures can show the parent of a compound that is named as a salt.

What follows are molecules tested against T1, recombinant human ALX receptor (Homo sapiens, UniProt P25090) (assay: Intracellular calcium measurements (FLIPR), ALX receptor agonistic activity). Settings: HEK293-hALXR-Gα16 cells, Fluo-4 calcium signal, normalized to WKYMVm 10 nM.
T1 construct: expressed in transfected cells; host or cells: HEK293 (HEK293-hALXR-Gα16)
T1 sequence (P25090 1-351): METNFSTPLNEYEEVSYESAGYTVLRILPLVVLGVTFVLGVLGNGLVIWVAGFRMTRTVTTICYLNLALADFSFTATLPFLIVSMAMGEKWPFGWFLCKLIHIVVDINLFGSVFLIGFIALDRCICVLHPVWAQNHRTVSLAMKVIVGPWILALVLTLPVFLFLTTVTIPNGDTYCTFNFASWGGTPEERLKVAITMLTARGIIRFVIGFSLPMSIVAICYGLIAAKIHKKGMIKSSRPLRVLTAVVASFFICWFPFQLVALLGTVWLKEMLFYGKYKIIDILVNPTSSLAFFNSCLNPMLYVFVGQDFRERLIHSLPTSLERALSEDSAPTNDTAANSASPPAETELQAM
Format: cell-based
Summary of the method: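 HEK293 cells co-expressing human ALX receptor and Gα16 were loaded with 1 μM Fluo-4 AM for 60 min at 37° C., then exposed to serially diluted compounds on FLIPR Tetra. Peak fluorescence above baseline (ex 488/em 540 nm) was normalized to 10 nM WKYMVm as high control.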
`CCOc1ccc(CC(NC(=O)N[C@H]2CC[C@H](O)CC2)c2nc3ccccc3[nH]2)cc1` (relative stereo) [Example 77, 1-(1-(1H-Benzo[d]imidazol-2-yl)-2-(4-ethoxyphenyl)ethyl)-3-(trans-4-hydroxycyclohexyl)urea] gave an EC50 of 203 nM.
For `COc1ccc(C[C@@H](NC(=O)NCc2cccc(C(F)(F)F)c2Cl)c2nc3ccccc3[nH]2)cc1` [Example 273, (R)-1-(1-(1H-Benzo[d]imidazol-2-yl)-2-(4-methoxyphenyl)ethyl)-3-(2-chloro-3-(trifluoromethyl)benzyl)urea], the EC50 was 234 nM.
In the case of `COc1ccc(C[C@@H](NC(=O)NC(C)c2ccc(OC(F)(F)F)cc2)c2nc3ccccc3[nH]2)cc1` (stereo partly drawn) [Example 381, 1-((R)-1-(1H-Benzo[d]imidazol-2-yl)-2-(4-methoxyphenyl)ethyl)-3-(1-(4-(trifluoromethoxy)phenyl)ethyl)urea], the EC50 is reported as 1170 nM.
`COc1ccc(C[C@@H](NC(=O)N[C@H]2CC[C@H](O)CC2)c2nc3ccc(Cl)cc3[nH]2)cc1` [Example 36, 1-((R)-1-(6-Chloro-1H-benzo[d]imidazol-2-yl)-2-(4-methoxyphenyl)ethyl)-3-(trans-4-hydroxycyclohexyl)urea] gave an EC50 of 1 nM.
Work on `COc1c(F)c(F)c(CC(NC(=O)N[C@H]2CC[C@H](O)CC2)c2nc3ccccc3[nH]2)c(F)c1F` (single isomer, unassigned; ent-1) [Example 312, 1-(1-(1H-Benzo[d]imidazol-2-yl)-2-(2,3,5,6-tetrafluoro-4-methoxyphenyl)ethyl)-3-(trans-4-hydroxycyclohexyl)urea (ent-1)] yielded an EC50 of 22 nM.
`COc1ccc(C[C@@H](NC(=O)Nc2ccccc2OC)c2nc3ccccc3[nH]2)cc1` [Example 178, (R)-1-(1-(1H-Benzo[d]imidazol-2-yl)-2-(4-methoxyphenyl)ethyl)-3-(2-methoxyphenyl)urea] was tested, and the EC50 was 699 nM.
Work on `COc1cc(F)c(CC(NC(=O)N[C@H]2CC[C@H](O)CC2)c2nc3ccccc3[nH]2)c(F)c1` (single isomer, unassigned; ent-1) [Example 316, 1-(1-(1H-Benzo[d]imidazol-2-yl)-2-(2,6-difluoro-4-methoxyphenyl)ethyl)-3-(trans-4-hydroxycyclohexyl)urea (ent-1)] yielded an EC50 of 3.2 nM.
For `COc1ccc(C[C@@H](NC(=O)NC2CCN(CCc3ccccc3)CC2)c2nc3ccccc3[nH]2)cc1` [Example 105, (R)-1-(1-(1H-Benzo[d]imidazol-2-yl)-2-(4-methoxyphenyl)ethyl)-3-(1-phenethylpiperidin-4-yl)urea], the EC50 was 14 nM.
Molecule `COc1ccc(C[C@@H](NC(=O)NC2CC3CCC2C3)c2nc3ccccc3[nH]2)cc1` (stereo partly drawn) [Example 25, 1-((R)-1-(1H-Benzo[d]imidazol-2-yl)-2-(4-methoxyphenyl)ethyl)-3-(bicyclo[2.2.1]heptan-2-yl)urea] has an EC50 of 9.7 nM.
In the case of `COc1ccc(C[C@@H](NC(=O)N[C@H]2CC[C@H](O)CC2)c2nc3cc(Br)ccc3[nH]2)cc1` [Example 179, 1-((R)-1-(5-Bromo-1H-benzo[d]imidazol-2-yl)-2-(4-methoxyphenyl)ethyl)-3-(trans-4-hydroxycyclohexyl)urea], the EC50 is reported as 1.1 nM.
Work on `COc1ccc(C[C@@H](NC(=O)NCc2ncc(Br)cc2F)c2nc3ccccc3[nH]2)cc1` [Example 291, (R)-1-(1-(1H-Benzo[d]imidazol-2-yl)-2-(4-methoxyphenyl)ethyl)-3-((5-bromo-3-fluoropyridin-2-yl)methyl)urea] yielded an EC50 of 439 nM.
`O=C(N[C@H](Cc1ccc(C(F)(F)F)cc1)c1nc2cc(F)ccc2[nH]1)N[C@H]1CC[C@H](O)CC1` [Example 265, 1-((R)-1-(5-Fluoro-1H-benzo[d]imidazol-2-yl)-2-(4-(trifluoromethyl)phenyl)ethyl)-3-(trans-4-hydroxycyclohexyl)urea] gave an EC50 of 4.7 nM.
`COc1ccc(C[C@@H](NC(=O)N(CCO)C2CCCCC2)c2nc3ccccc3[nH]2)cc1` [Example 111, (R)-3-(1-(1H-Benzo[d]imidazol-2-yl)-2-(4-methoxyphenyl)ethyl)-1-cyclohexyl-1-(2-hydroxyethyl)urea] showed an EC50 of 142 nM.
`CCOC(=O)[C@@H]1CCCC[C@H]1NC(=O)N[C@H](Cc1ccc(OC)cc1)c1nc2ccccc2[nH]1` (relative stereo) [Example 161, (1R*,2R*)-Ethyl 2-(3-((R)-1-(1H-benzo[d]imidazol-2-yl)-2-(4-methoxyphenyl)ethyl)ureido)cyclohexanecarboxylate] showed an EC50 of 0.6 nM.
`COc1ccc(C[C@@H](NC(=O)NC2CCCc3ccccc32)c2nc3ccccc3[nH]2)cc1` (stereo partly drawn) [Example 27, 1-((R)-1-(1H-Benzo[d]imidazol-2-yl)-2-(4-methoxyphenyl)ethyl)-3-(1,2,3,4-tetrahydronaphthalen-1-yl)urea] showed an EC50 of 26 nM.
In the case of `COc1ccc(CC(NC(=O)N[C@H]2CC[C@H](O)CC2)c2nc3ccc(Br)cc3[nH]2)cc1` (relative stereo) [Example 424, 1-(1-(6-bromo-1H-benzo[d]imidazol-2-yl)-2-(4-methoxyphenyl)ethyl)-3-(trans-4-hydroxycyclohexyl)urea], the EC50 is reported as 0.8 nM.
`COc1ccc(CC(NC(=O)NC2CCCC(O)C2)c2nc3ccccc3[nH]2)cc1` (stereo not shown) [Example 37, 1-(1-(1H-Benzo[d]imidazol-2-yl)-2-(4-methoxyphenyl)ethyl)-3-(3-hydroxycyclohexyl)urea] was tested, and the EC50 was 27 nM.
Work on `COc1ccc(C[C@@H](NC(=O)N[C@H](CO)c2ccccc2)c2nc3ccccc3[nH]2)cc1` [Example 203, 1-((R)-1-(1H-Benzo[d]imidazol-2-yl)-2-(4-methoxyphenyl)ethyl)-3-((S)-2-hydroxy-1-phenylethyl)urea] yielded an EC50 of 176 nM.
In the case of `COc1ccc(CC(NC(=O)N[C@H]2CC[C@](C)(O)CC2)c2nc3ccc(F)cc3[nH]2)c(F)c1` (mixture of isomers) [Example 246, 1-(1-(6-Fluoro-1H-benzo[d]imidazol-2-yl)-2-(2-fluoro-4-methoxyphenyl)ethyl)-3-(trans-4-hydroxy-4-methylcyclohexyl)urea], the EC50 is reported as 1.8 nM.
`COc1ccc(C[C@@H](NC(=O)NCCC#N)c2nc3ccccc3[nH]2)cc1` [Example 69, (R)-1-(1-(1H-Benzo[d]imidazol-2-yl)-2-(4-methoxyphenyl)ethyl)-3-(2-cyanoethyl)urea] gave an EC50 of 637 nM.
`COc1ccc(C[C@@H](NC(=O)N[C@@H](C)c2ccc(F)cc2)c2nc3ccccc3[nH]2)cc1` [Example 321, 1-((R)-1-(1H-Benzo[d]imidazol-2-yl)-2-(4-methoxyphenyl)ethyl)-3-((S)-1-(4-fluorophenyl)ethyl)urea] was tested, and the EC50 was 128 nM.
`COc1ccc(C[C@@H](NC(=O)Nc2c(-c3ccccc3)noc2C)c2nc3ccccc3[nH]2)cc1` [Example 213, (R)-1-(1-(1H-Benzo[d]imidazol-2-yl)-2-(4-methoxyphenyl)ethyl)-3-(5-methyl-3-phenylisoxazol-4-yl)urea] was tested, and the EC50 was 53 nM.
`COc1ccc(CC(NC(=O)N[C@H]2CC[C@H](O)CC2)c2nc3ccc(F)cc3[nH]2)cc1F` (single isomer, unassigned; ent-2) [Example 371, 1-(1-(6-Fluoro-1H-benzo[d]imidazol-2-yl)-2-(3-fluoro-4-methoxyphenyl)ethyl)-3-(trans-4-hydroxycyclohexyl)urea (ent-2)] showed an EC50 of 250 nM.
`C[C@]1(O)CC[C@H](NC(=O)NC(Cc2ccc(Br)cc2F)c2nc3ccccc3[nH]2)CC1` (mixture of isomers) [Example 253, 1-(1-(1H-Benzo[d]imidazol-2-yl)-2-(4-bromo-2-fluorophenyl)ethyl)-3-(trans-4-hydroxy-4-methylcyclohexyl)urea] gave an EC50 of 25 nM.
For `CCOCc1ccccc1CNC(=O)NC(Cc1ccc(OC)cc1)c1nc2ccccc2[nH]1` (stereo not shown) [Example 50, 1-(1-(1H-Benzo[d]imidazol-2-yl)-2-(4-methoxyphenyl)ethyl)-3-(2-(ethoxymethyl)benzyl)urea], the EC50 was 136 nM.
Molecule `COc1ccc(C[C@@H](NC(=O)NCCN2CCN(C(C)=O)CC2)c2nc3ccccc3[nH]2)cc1` [Example 390, (R)-1-(1-(1H-Benzo[d]imidazol-2-yl)-2-(4-methoxyphenyl)ethyl)-3-(2-(4-acetylpiperazin-1-yl)ethyl)urea] has an EC50 of 2680 nM.
For `COc1ccc(C[C@@H](NC(=O)NCc2cccc(OC)c2)c2nc3ccccc3[nH]2)cc1` [Example 5, (R)-1-(1-(1H-Benzo[d]imidazol-2-yl)-2-(4-methoxyphenyl)ethyl)-3-(3-methoxybenzyl)urea], the EC50 was 602 nM.
With `COc1ccc(C[C@@H](NC(=O)NC2CCCN(C)C2)c2nc3ccccc3[nH]2)cc1` (stereo partly drawn) [Example 117, 1-((R)-1-(1H-Benzo[d]imidazol-2-yl)-2-(4-methoxyphenyl)ethyl)-3-(1-methylpiperidin-3-yl)urea] the EC50 was 62 nM.
For `COC[C@H](NC(=O)N[C@H](Cc1ccc(OC)cc1)c1nc2ccccc2[nH]1)c1ccccc1` [Example 201, 1-((R)-1-(1H-Benzo[d]imidazol-2-yl)-2-(4-methoxyphenyl)ethyl)-3-((R)-2-methoxy-1-phenylethyl)urea], the EC50 was 54 nM.
`COc1ccc(C[C@@H](NC(=O)NCC2CCCc3ccccc32)c2nc3ccccc3[nH]2)cc1` (stereo partly drawn) [Example 305, 1-((R)-1-(1H-Benzo[d]imidazol-2-yl)-2-(4-methoxyphenyl)ethyl)-3-((1,2,3,4-tetrahydronaphthalen-1-yl)methyl)urea] showed an EC50 of 80 nM.
For `COc1ccc(C[C@@H](NC(=O)NCC2CCCO2)c2nc3ccccc3[nH]2)cc1` (stereo partly drawn) [Example 57, 1-((R)-1-(1H-Benzo[d]imidazol-2-yl)-2-(4-methoxyphenyl)ethyl)-3-((tetrahydrofuran-2-yl)methyl)urea hydrochloride], the EC50 was 82 nM.
